In patent US6670365B1, “Substituted imidazo 1,2a}azines as selective inhibitors of cox-2” (Laboratorios S.A.L.V.A.T., S.A., priority 1998, dated 2003):

How the values were obtained:
COX-2 = target: T1, COX-2 (Homo sapiens, UniProt P35354); test: Assay for in vitro COX-2 inhibition in LPS-stimulated human whole blood (PGE2 by EIA); type: cell-based; settings: for IC50: human whole blood, compound 0.1 to 25 μM, 15 minutes at 37° C., LPS 100 μg/mL for 24 h, PGE2 levels in plasma by EIA; for selective COX-2 inhibitory activity (COX-2 in preference to COX-1): in vitro, statement in words referring to Table 1
T1 construct: endogenous in cells; host or cells: human whole blood from volunteers, stimulated with LPS
T1 sequence (P35354 18-604): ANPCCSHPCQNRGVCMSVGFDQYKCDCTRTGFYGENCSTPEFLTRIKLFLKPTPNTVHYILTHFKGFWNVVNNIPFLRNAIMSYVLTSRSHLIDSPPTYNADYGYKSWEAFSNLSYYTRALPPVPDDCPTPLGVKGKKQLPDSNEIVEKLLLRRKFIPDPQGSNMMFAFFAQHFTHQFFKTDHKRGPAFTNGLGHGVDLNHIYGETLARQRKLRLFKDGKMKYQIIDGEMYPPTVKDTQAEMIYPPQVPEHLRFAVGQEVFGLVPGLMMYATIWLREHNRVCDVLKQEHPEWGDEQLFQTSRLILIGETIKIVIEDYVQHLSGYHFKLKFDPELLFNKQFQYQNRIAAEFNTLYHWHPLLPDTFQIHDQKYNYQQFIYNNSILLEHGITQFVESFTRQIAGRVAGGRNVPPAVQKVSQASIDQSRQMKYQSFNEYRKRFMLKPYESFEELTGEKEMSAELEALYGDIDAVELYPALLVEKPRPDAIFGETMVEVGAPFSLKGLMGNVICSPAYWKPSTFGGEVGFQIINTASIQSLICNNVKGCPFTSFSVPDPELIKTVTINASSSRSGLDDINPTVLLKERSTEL
Description: Assay for in vitro COX-2 Inhibition
Human whole blood from volunteers with no apparent inflammatory conditions and not having taken any NSAIDs for at least 15 days prior to blood collection was used to evaluate the COX-2 inhibitory effect of the synthesized compounds. […] At the end of the incubation, the blood was centrifuged at 10.000 rpm to obtain plasma, and the samples were stored at −80° C. PGE2 levels in plasma were established using EIA (Cayman Chemical).

COX-1 = target: T2, COX-1 (Homo sapiens, UniProt P23219); test: Assay for in vitro COX-1 inhibition in fresh whole blood without anticoagulants (TXB2 by EIA); type: cell-based; settings: no anticoagulants, compound 0.1 to 100 μM, 37° C. for 1 hour, TXB2 levels in plasma by EIA
T2 construct: Fresh blood was collected into sterile containers with no anticoagulants; endogenous in cells; host or cells: fresh whole blood without anticoagulants (platelet COX-1, TXB2 read-out)
T2 sequence (P23219 24-599): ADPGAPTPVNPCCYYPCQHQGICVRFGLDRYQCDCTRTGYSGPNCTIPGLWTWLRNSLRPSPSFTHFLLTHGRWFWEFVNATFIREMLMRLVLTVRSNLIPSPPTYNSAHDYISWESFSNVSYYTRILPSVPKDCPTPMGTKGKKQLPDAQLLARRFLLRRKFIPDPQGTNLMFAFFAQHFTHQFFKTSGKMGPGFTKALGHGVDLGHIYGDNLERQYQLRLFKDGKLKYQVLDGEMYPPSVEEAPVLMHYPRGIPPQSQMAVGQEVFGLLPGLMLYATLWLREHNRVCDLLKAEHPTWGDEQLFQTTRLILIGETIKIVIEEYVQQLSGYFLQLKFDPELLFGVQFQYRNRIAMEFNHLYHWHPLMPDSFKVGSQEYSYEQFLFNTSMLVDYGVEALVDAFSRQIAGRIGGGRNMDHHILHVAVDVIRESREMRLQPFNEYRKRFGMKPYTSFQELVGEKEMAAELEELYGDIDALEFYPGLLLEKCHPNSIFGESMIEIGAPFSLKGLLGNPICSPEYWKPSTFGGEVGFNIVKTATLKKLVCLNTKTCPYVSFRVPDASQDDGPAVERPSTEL
Description: Assay for in vitro COX-1 Inhibition
Fresh blood was collected into sterile containers with no anticoagulants. Aliquots of 500 μL were immediately transferred to eppendorf tubes, preloaded with a test compound each, at final concentrations varying from 0.1 to 100 μM. The eppendorf tubes were vortexed and incubated at 37° C. for 1 hour. At the end of incubation, plasma was obtained by centrifugation and stored at −80° C. TXB2 levels in plasma were established using EIA (Cayman Chemical).

CCOc1ccc(-c2nc3ccccn3c2-c2ccc(S(C)(=O)=O)cc2)cc1 [Product Iddd, 2-(4-ethoxyphenyl)-3-(4-methylsulfonylphenyl)imidazo[1,2a]pyridine]
IC50 (COX-2): 3.5 µM
IC50 (COX-1): 80 µM

2-phenyl-3-(4-aminosulfonylphenyl)imidazo[1,2a][1,2,4]triazine [Product Idd]
IC50 (COX-2): 3.8 µM
IC50 (COX-1): > 50 µM

COc1ccc(-c2nc3ccccn3c2-c2ccc(S(C)(=O)=O)cc2)cc1 [Product Iccc, 2-(4-methoxyphenyl)-3-(4-methylsulfonylphenyl)imidazo[1,2a]pyridine]
IC50 (COX-2): 3.3 µM
IC50 (COX-1): 40 µM

Cc1ccc(-c2nc3ncccn3c2-c2ccc(S(C)(=O)=O)cc2)cc1 [Product Ib, 2-(4-methylphenyl)-3-(4-methylsulfonylphenyl)imidazo[1,2a]pyrimidine]
IC50 (COX-1): > 50 µM

2-(4-fluorophenyl)-3-(4-methylsulfonylphenyl)imidazo[1,2a][1,2,4]triazine [Product Ibb]
IC50 (COX-2): 2.2 µM
IC50 (COX-1): 50 µM

COc1ccc(-c2nc3ncccn3c2-c2ccc(S(C)(=O)=O)cc2)cc1 [Product If, 2-(4-methoxyphenyl)-3-(4-methylsulfonylphenyl)imidazo[1,2a]pyrimidine]
IC50 (COX-2): 1.4 µM
selective COX-2 inhibitory activity (COX-2 in preference to COX-1) (COX-2): specially selective COX-2 inhibitory activity
IC50 (COX-1): 25 µM

COc1ccc(-c2nc3ncccn3c2-c2ccc(S(C)(=O)=O)cc2)cc1Cl [Product Ik, 2-(3-chloro-4-methoxyphenyl)-3-(4-methylsulfonylphenyl)imidazo[1,2a]pyrimidine]
IC50 (COX-2): 3.9 µM
IC50 (COX-1): 61 µM

COc1ccc(-c2nc3ccccn3c2-c2ccc(S(C)(=O)=O)cc2)cc1Cl [Product Ihhh, 2-(3-chloro-4-methoxyphenyl)-3-(4-methylsulfonylphenyl)imidazo[1,2a]pyridine]
IC50 (COX-2): 6.8 µM
IC50 (COX-1): 82 µM

Cc1ccc(-c2nc3ncccn3c2-c2ccc(S(C)(=O)=O)cc2)cc1C [Product Ih, 2-(3,4-dimethylphenyl)-3-(4-methylsulfonylphenyl)imidazo[1,2a]pyrimidine]
IC50 (COX-2): 2.8 µM
IC50 (COX-1): > 50 µM

COc1ccc(-c2nc3ccccn3c2-c2ccc(S(C)(=O)=O)cc2)cc1C [Product Ifff, 2-(3-methyl-4-methoxyphenyl)-3-(4-methylsulfonylphenyl)imidazo[1,2a]pyridine]
IC50 (COX-2): 1 µM
IC50 (COX-1): 45 µM

CS(=O)(=O)c1ccc(-c2c(-c3ccc(Cl)cc3)nc3ncccn23)cc1 [Product Id, 2-(4-chlorophenyl)-3-(4-methylsulfonylphenyl)imidazo[1,2a]pyrimidine]
IC50 (COX-2): > 10 µM
IC50 (COX-1): > 50 µM

CS(=O)(=O)c1ccc(-c2c(-c3ccc(F)cc3)nc3ncccn23)cc1 [Product Ic, 2-(4-fluorophenyl)-3-(4-methylsulfonylphenyl)imidazo[1,2a]pyrimidine]
IC50 (COX-2): 2.9 µM
selective COX-2 inhibitory activity (COX-2 in preference to COX-1) (COX-2): specially selective COX-2 inhibitory activity
IC50 (COX-1): > 50 µM

Cc1ccccc1-c1nc2ccccn2c1-c1ccc(S(N)(=O)=O)cc1 [Product Innn, 2-(2-methylphenyl)-3-(4-aminosulfonylphenyl)imidazo[1,2a]pyridine]
IC50 (COX-2): > 5 µM
IC50 (COX-1): > 100 µM

COc1ccc(-c2nc3ccccn3c2-c2ccc(S(N)(=O)=O)cc2)cc1C [Product Iuuu, 2-(3-methyl-4-methoxyphenyl)-3-(4-aminosulfonylphenyl)imidazo[1,2a]pyridine]
IC50 (COX-2): 1.7 µM
IC50 (COX-1): 25 µM

2-phenyl-3-(4-methylsulfonylphenyl)imidazo[1,2a][1,2,4]triazine [Product Iaa]
IC50 (COX-2): 3.1 µM
IC50 (COX-1): 76 µM

Cc1cccc(-c2nc3ccccn3c2-c2ccc(S(N)(=O)=O)cc2)c1 [Product Ippp, 2-(3-methylphenyl)-3-(4-aminosulfonylphenyl)imidazo[1,2a]pyridine]
IC50 (COX-2): 3.1 µM

2-(3-fluorophenyl)-3-(4-aminosulfonylphenyl)imidazo[1,2a][1,2,4]triazine [Product Ihh]
IC50 (COX-1): 100 µM

2-(3-methylphenyl)-3-(4-aminosulfonylphenyl)imidazo[1,2a][1,2,4]triazine [Product Igg]
IC50 (COX-2): 2.8 µM
IC50 (COX-1): 10 µM

COc1ccc(-c2nc3ncccn3c2-c2ccc(S(C)(=O)=O)cc2)cc1C [Product Ii, 2-(3-methyl-4-methoxyphenyl)-3-(4-methylsulfonylphenyl)imidazo[1,2a]pyrimidine]
IC50 (COX-2): 2.2 µM
IC50 (COX-1): 30 µM

CS(=O)(=O)c1ccc(-c2c(-c3ccccc3)nc3ncccn23)cc1 [Product Ia, 2-phenyl-3-(4-methylsulfonylphenyl)imidazo [1,2a]pyrimidine]
IC50 (COX-2): 5.5 µM
IC50 (COX-1): > 50 µM

Cc1ccc(-c2nc3ncccn3c2-c2ccc(S(N)(=O)=O)cc2)cc1 [Product Io, 2-(4-methylphenyl)-3-(4-aminosulfonylphenyl)imidazo[1,2a]pyrimidine]
IC50 (COX-2): 4.5 µM
IC50 (COX-1): > 50 µM

CCOc1ccc(-c2nc3ncccn3c2-c2ccc(S(C)(=O)=O)cc2)cc1 [Product Ig, 2-(4-ethoxyphenyl)-3-(4-methylsulfonylphenyl)imidazo[1,2a]pyrimidine]
IC50 (COX-2): 1 µM
selective COX-2 inhibitory activity (COX-2 in preference to COX-1) (COX-2): specially selective COX-2 inhibitory activity

NS(=O)(=O)c1ccc(-c2c(-c3cccc(F)c3)nc3ccccn23)cc1 [Product Iqqq, 2-(3-fluorophenyl)-3-(4-aminosulfonylphenyl)imidazo[1,2a]pyridine]
IC50 (COX-2): > 10 µM
IC50 (COX-1): > 100 µM

Cc1ccn2c(-c3ccc(S(C)(=O)=O)cc3)c(-c3ccc(C)c(C)c3)nc2n1 [Product In, 7-methyl-2-(3,4-dimethylphenyl)-3-(4-methylsulfonylphenyl)imidazo[1,2a]pyrimidine]
IC50 (COX-2): 4.2 µM
IC50 (COX-1): 2 µM
